Like-named read-outs stand apart in the source and are kept apart here. Marks after values point to notes of the source that are not given here.
Experiments:
Assay type in all cases: cell-based, human
U87 MG/PER2-dLuc cells [1] = experiment: cells; conditions: 72 h treatment
Experimental: U87 MG/PER2-dLuc cells were subjected to the 3-(4, 5-dimethylthiazol-2-yl)-2, 5-diphenyl tetrazolium bromide (MTT) (M2128; Sigma-Aldrich) assay. […] Briefly, U87 MG/PER2-dLuc cells were seeded in 96-well plates at a density of 10^5 cells/mL, incubated for 48 h, and treated with relevant chemicals at various concentrations for 72 h. Subsequently, the media with chemicals were decanted and 20μl of MTT reagent solution (5 mg/ml) with 80μl of the media was added to all wells the plates and were incubated for 2 h until the formation of formazan crystals. The reagent solution was decanted, and 100μl of DMSO (D8418; Sigma-Aldrich) was added. Absorbance was measured at 570 nm using a spectrophotometer (Molecular Devices). The values of triplicate same-treatment wells were averaged.

U87 MG/PER2-dLuc cells [2] = experiment: in vitro cellular bioluminescence (PER2-dLuc circadian reporter) assay; conditions: for concentration that disrupted the cellular circadian rhythm / concentration with no disruptive effect on cellular circadian rhythm: Fig. 3; for LOAEL Circadian disruption: U87 MG/PER2-dLuc cells, bioluminescence monitored 5 days; for effect on cellular circadian rhythm: at disrupting concentration: MPP + ≥ 30 µM, DDT 10 µM, PMX ≥ 30 µM, CPX ≥ 40 µM, CPF 1.5 µM
Experimental: U-87 MG (ATCC® HTB-14™) is a well-recognized human glioblastoma cell line widely used in the field of neuroscience. U87 MG cells have a regular and strong cellular circadian rhythm after transfection with a circadian gene (i.e., BMAL1) reporter vector (Jung et al. [2013]; Slat et al. [2017]). As described in our previous report (Fang et al. [2015], [2017]), U87 MG cells were transfected with a circadian reporter vector pGL [PER2P (Luc2P/Neo)] expressing destabilized firefly luciferase driven by the human PER2 promoter using FuGene HD™ transfection reagent (LightSwitch Genomics), and stably transfected cells were selected and cultured with 1000 μg/mL G418 (Invitrogen). The stably transfected cells were used to examine the cellular circadian rhythm using an in vitro cellular bioluminescence assay. U87 MG/PER2P-dLuc cells were cultured in Eagle’s minimum essential medium (EMEM) (11430030; Gibco) supplemented with 5% fetal bovine serum (FBS) (26140079; Gibco) and 1% penicillin/streptomycin (15140122; Gibco) at 37 °C in an atmosphere of 95% humidity and 5% CO2.
(§1) Briefly, cultured U87 MG/PER2 -dLuc cells were seeded in 35-mm dishes at 3 × 10^5 cells/dish and incubated until 70–80% confluency was reached. The cells were FBS-starved for three days at 70% confluency and then synchronized with 50% horse serum (16050122; Gibco) (Balsalobre et al. [1998]). After decanting and washing, recording medium (EMEM with 20% of growing medium containing 5% FBS, 6.5 mM sodium bicarbonate, 10 mM HEPES buffer [pH 7.2], 0.1 mM luciferin [E1602; Promega], and 50 U/mL penicillin and 50 µg/mL streptomycin) was added. Subsequently, the cells were treated with each compound. The 35-mm dishes were sealed with a sterile glass cover slide using silicon grease and subjected to continuous monitoring with a LumiCycle 32™ (Actimetrics) for 5 days. The analytical method was optimized according to the instruction manual of the LumiCycle Analysis Software (Actimetrics). Using this software, data were detrended (running average), and best fits to a sine wave were estimated using the Levenberg–Marquardt algorithm for period, phase, amplitude, and damping rate measurements, as previously reported (Chen et al. [2012]; Fang et al. [2015], [2017]).

U87 MG/PER2-dLuc cells [3] = experiment: multiparametric high-content screening (HCS) assay; conditions: for LOAEL CA (calcium ion): Fluo-4 AM; for LOAEL MMP (mitochondrial membrane potential): TMRM; for LOAEL LP (lipid peroxidation): BODIPY 665/676; for LOAEL NC (nuclear size): Hoechst 33342; for lowest concentration with decrease in MMP / concentrations that decreased nuclear size: 24 h of treatment; for concentrations with increased lipid peroxidation / concentrations that changed nuclear size: 72 h of treatment; for concentrations that changed nuclear size: MHg biphasic changes, MPP + reduction; for concentrations that decreased nuclear size: p < 0.01, text
Experimental: A multiparametric analysis of compound toxicity at the level of individual cells was conducted using the HCS method established by Tolosa et al. ([2012]) to assess the liver toxicity of chemicals and drugs. Briefly, U87 MG/PER2-dLuc cells were seeded in 96-well plates specific for HCS at a density of 10^4 cells/well. […] Following these treatments, cells were treated with a mixture of Hoechst 33342 (Hoechst) (B2261; Sigma-Alrich) at 1.5 µg/mL to assess the nuclear size (NC), 75 ng/mL tetramethyl rhodamine methyl ester (TMRM) (T-668; Molecular Probes) as a mitochondrial membrane potential (MMP) sensor, 0.24 µM fluo-4 acetoxymethyl ester (Fluo-4 AM) (F14217; Molecular Probes) to detect intracellular calcium ions (Ca^2+), and 1.5 µg/mL of (E,E)-3,5-bis-(4-phenyl-1,3-butadienyl)-4,4-difluoro-4-bora-3a,4a-diaza-s-indacene (BODIPY 665/676) (b-3932; Molecular Probes) to evaluate lipid peroxidation. After incubation for 1 h, the cells were imaged using an IN Cell Analyzer 6000 (GE Healthcare Life Sciences) and analyzed using IN Cell Miner HCM. The data were analyzed with IN Cell Analyzer 6000 Analysis Software. Nuclear morphological alterations were assessed based on the Hoechst staining. The nucleus was defined as the main object detected using an edge detection algorithm. To separate individual cells, segmentation was applied. All measurements were restricted to live cells. Lipid peroxidation was detected based on BODIPY fluorescence intensity in the cytoplasm. The cellular MMP was defined as the TMRM fluorescence intensity in punctate cytosolic regions surrounding the nucleus. Fluo-4 intensity was used to measure changes in the cytosolic-free Ca^2+ concentration. An intensity algorithm with a fixed threshold was used to measure TMRM, Fluo-4, and BODIPY fluorescence. Each measurement was performed in individual cells. The values of triplicate same-treatment wells were averaged and normalized to the average value of vehicle control (0.1% DMSO-treated or naïve cells).
The values of triplicate same-treatment wells were averaged and normalized to the average value of the negative control group, and differences in parameters between concentrations were analyzed using one-way ANOVA followed by Duncan’s tests. A p-value < 0.05 was considered significant.

U87 MG/PER2-dLuc cells [4] = experiment: cellular circadian rhythm assay with neurotoxicants in the presence of antioxidants; conditions: for restoration of circadian rhythm disrupted by CPF: 1.5 µM CPF, 20 µM NAC, 12.5 µM (or 25 µM) MSC; for effect on circadian rhythm disrupted by MHg: 2.0 µM MHg, co-treatment with NAC and MSC; for restoration of cellular rhythm disrupted by DDT: 10 µM DDT, co-treatment with NAC (10 or 20 µM) or MSC (12.5 or 25 µM); for restoration of MPP + -disrupted rhythmicity: MPP + at LOAEL, restored rhythm not similar to that of control cells
Experimental: as §1
The cellular circadian rhythm was recorded as described above.

[5] = Homo sapiens, U-87 MG, no unit with values, axis Concentration[μM], read-out: IC50 (cell viability, MTT; Fig. 1)
[6] = Homo sapiens, U-87 MG, read-out: IC50 (MTT, Table 1)

Compound	IC15 (MTT, Table 1) (U87 MG/PER2-dLuc cells [1]) [µM]	IC50 (U87 MG/PER2-dLuc cells [1]; read-out: IC50 (MTT, Table 1)) [µM]	concentration that disrupted the cellular circadian rhythm (U87 MG/PER2-dLuc cells [2]) [µM]	LOAEL Circadian disruption (U87 MG/PER2-dLuc cells [2]) [µM]	effect on cellular circadian rhythm (U87 MG/PER2-dLuc cells [2])	LOAEL CA (calcium ion) (U87 MG/PER2-dLuc cells [3]; 24-h treatment)	LOAEL MMP (mitochondrial membrane potential) (U87 MG/PER2-dLuc cells [3]; 24-h treatment)	concentration that increased intracellular Ca2+ levels (U87 MG/PER2-dLuc cells [3]; 72-h timepoint)	LOAEL LP (lipid peroxidation) (U87 MG/PER2-dLuc cells [3]; 72-h treatment)	LOAEL CA (calcium ion) (U87 MG/PER2-dLuc cells [3]; 72-h treatment)	lowest concentration with decrease in MMP (U87 MG/PER2-dLuc cells [3]) [µM]	concentrations with increased lipid peroxidation (U87 MG/PER2-dLuc cells [3])	also measured
C[n+]1ccc(-c2ccccc2)cc1 [MPP +, 1-methyl-4-phenylpyridinium]	68.4	93	≥ 30	30	advanced phase and decreased amplitude	40 µM	40* µM	0.63 µM	160 µM	0.63 µM	40	> 160 µM	concentration with no disruptive effect on cellular circadian rhythm (U87 MG/PER2-dLuc cells [2]): 10 µM; concentration that increased intracellular Ca2+ levels (U87 MG/PER2-dLuc cells [3]; 24-h timepoint): 40 µM; LOAEL NC (nuclear size) (U87 MG/PER2-dLuc cells [3]; 72-h treatment): 80 µM; concentrations that changed nuclear size (U87 MG/PER2-dLuc cells [3]): 80 to 120 µM
polymyxin B [PMX]	49	51	≥ 30	30	advanced phase and decreased amplitude		3.91* µM			3.91** µM	3.91		concentration with no disruptive effect on cellular circadian rhythm (U87 MG/PER2-dLuc cells [2]): 15 µM
[CH3][Hg][Cl] [MHg, methylmercury (II) chloride]	2.5	3.9	2.0				0.5* µM	above 0.03 µM	0.031** µM	0.031** µM	0.5	above 0.031 µM	IC50 (U87 MG/PER2-dLuc cells [1]; read-out: IC50 (cell viability, MTT)): 3.97 µM; LOAEL LP (lipid peroxidation) (U87 MG/PER2-dLuc cells [3]; 24-h treatment): 8** µM; LOAEL NC (nuclear size) (U87 MG/PER2-dLuc cells [3]; 24-h treatment): 4** µM; LOAEL NC (nuclear size) (U87 MG/PER2-dLuc cells [3]; 72-h treatment): 4** µM; concentration that significantly reduced lipid peroxidation levels (U87 MG/PER2-dLuc cells [3]; 24 h after treatment): 8.0 µM; concentrations that decreased nuclear size (U87 MG/PER2-dLuc cells [3]): 4 to 8 µM; concentrations that changed nuclear size (U87 MG/PER2-dLuc cells [3]): 2 to 8 µM
Clc1ccc(C(c2ccc(Cl)cc2)C(Cl)(Cl)Cl)cc1 [DDT, 4,4′-dichlorodiphenyltrichloroethane]	18.3	60	10	10	robust rhythm was gradually abolished	30** µM	15 µM	> 0.47 µM		0.47** µM	15		LOAEL NC (nuclear size) (U87 MG/PER2-dLuc cells [3]; 24-h treatment): 120** µM; concentrations that decreased nuclear size (U87 MG/PER2-dLuc cells [3]): 120 µM
C[Se]C[C@H](N)C(=O)O [MSC, methylselenocysteine]													restoration of circadian rhythm disrupted by CPF (U87 MG/PER2-dLuc cells [4]): restored the circadian rhythm; effect on circadian rhythm disrupted by MHg (U87 MG/PER2-dLuc cells [4]): reduced the first high-altitude peak; restoration of cellular rhythm disrupted by DDT (U87 MG/PER2-dLuc cells [4]): restored the cellular rhythm; restoration of MPP + -disrupted rhythmicity (U87 MG/PER2-dLuc cells [4]): restore the cellular circadian rhythm to a certain extent
O=C(O)c1cn(C2CC2)c2cc(N3CCNCC3)c(F)cc2c1=O [CPX, ciprofloxacin]	19.8		≥ 40	40	increased the circadian rhythm		0.94** µM	> 0.94 µM	0.94** µM	0.94** µM	0.94	> 0.94 µM	IC50 (U87 MG/PER2-dLuc cells [1]; [5]): 98.3 µM; IC50 (U87 MG/PER2-dLuc cells [1]; [6]): 98 µM; IC50 (U87 MG/PER2-dLuc cells [1]; Homo sapiens, U-87 MG, read-out: IC50 (cell viability, MTT)): 98.3 µM
CCOP(=S)(OCC)Oc1nc(Cl)c(Cl)cc1Cl [CPF, chlorpyrifos]	13.9		1.5	1.5	abolished the cellular circadian rhythm	1.41** µM	1.41** µM			0.7** µM	1.41		IC50 (U87 MG/PER2-dLuc cells [1]; [5]): 43.7 µM; IC50 (U87 MG/PER2-dLuc cells [1]; [6]): 60 µM; concentrations that increased the intracellular Ca2+ level (U87 MG/PER2-dLuc cells [3]; both the 24- and 72-h timepoints): 0.7 to 45 µM
CC(=O)N[C@@H](CS)C(=O)O [NAC, N-acetyl-L-cysteine]													restoration of circadian rhythm disrupted by CPF (U87 MG/PER2-dLuc cells [4]): restored the circadian rhythm; effect on circadian rhythm disrupted by MHg (U87 MG/PER2-dLuc cells [4]): reduced the first high-altitude peak; restoration of cellular rhythm disrupted by DDT (U87 MG/PER2-dLuc cells [4]): restored the cellular rhythm; restoration of MPP + -disrupted rhythmicity (U87 MG/PER2-dLuc cells [4]): restore the cellular circadian rhythm to a certain extent

From article PMC10965668, “Combined use of multiparametric high-content-screening and in vitro circadian reporter assays in neurotoxicity evaluation” (Archives of Toxicology, 2024)
